In PubChem BioAssay AID608 (Sanford-Burnham Center for Chemical Genomics, 2007) one finds Kd data, which are given here for 108 molecules.

For orientation: Kd means a measure of binding affinity in units of concentration.

The source made the active and inactive calls. No rule for the calls is given here.

The experiment deals with Peptidyl-prolyl cis-trans isomerase FKBP1A (Homo sapiens) (UniProt P62942). The experiment can be described thus: FKBP12 binders, biophysical, NMR detection (AID 608). The note with it: NMR binding, purified FKBP12.
Sequence of Peptidyl-prolyl cis-trans isomerase FKBP1A (Homo sapiens) (P62942 whole entry, looked up): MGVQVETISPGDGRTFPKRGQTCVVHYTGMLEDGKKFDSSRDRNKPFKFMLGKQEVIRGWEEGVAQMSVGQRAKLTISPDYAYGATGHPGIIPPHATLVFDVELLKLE
In the case of `Cn1nnc2c(N3CCC(C(N)=O)CC3)ncnc21`, the Kd was > 4 mM (inactive). `Cc1ccc(C(=O)N2CC(=O)NC(=O)C2)cc1`: the Kd was > 4 mM (inactive). The result for `COC(=O)CCSCC(=O)Nc1nnc(C)s1` reads > 4 mM (inactive); that for `NS(=O)(=O)c1ccc(N=C2NC(=O)CS2)cc1`, > 4 mM (inactive).

Regarding `Cc1ccc(-c2nnn(CC(=O)O)n2)cc1`, the Kd is > 4 mM (inactive). Regarding `CC(=O)OC(C)(C)[C@@H]1Cc2cc3ccc(=O)oc3cc2O1`, the Kd is > 4 mM (inactive). For `NS(=O)(=O)c1ccc(F)cc1`, the Kd is > 4 mM (inactive). Take `CS(=O)(=O)Nc1ccc(C(=O)N2CCCCC2)cc1`: the Kd was > 4 mM (inactive). The result for `NC(=O)c1cccc(Cl)n1` reads > 4 mM (inactive); that for `CC(=O)Oc1ccc(O)cc1`, > 4 mM (inactive). The figure for `COc1ccc2c(c1)[n+](=O)c(C(C)=O)c(C)n2[O-]` is > 4 mM (inactive). For the molecule `O=C(NCCCO)c1ccncc1`, the Kd was > 4 mM (inactive). For the molecule `O=C(Nc1ccncc1)c1c(F)cccc1F`, the Kd was > 4 mM (inactive). Take `N#CCCn1c(=O)oc2ccccc21`: the Kd was > 4 mM (inactive). Take `COc1ccc2[nH]c(O)c(NC(C)=O)c2c1`: the Kd is > 4 mM (inactive). The figure for `Nc1cccc(S(=O)(=O)N2CCOCC2)c1` is > 4 mM (inactive); for `O=c1[nH]c2ccccc2c(=O)n1CCCO` it is > 4 mM (inactive); for `O=C(NC(=S)NCc1cccnc1)c1ccco1` it is > 4 mM (inactive). With `CCSc1nc2ccccc2[nH]1`, the Kd was > 4 mM (inactive). For the molecule `Cc1ccc(S(=O)(=O)CC(=O)N2CCCC2)cc1`, the Kd is > 4 mM (inactive). On to `O=c1ccc2c([nH]1)CCCC2`, for which the Kd was > 4 mM (inactive). In the case of `Nc1cc(-c2ccco2)[nH]n1`, the Kd was > 4 mM (inactive). Take `Nc1nc(-c2ccccc2)cc(=O)[nH]1`: the Kd is > 4 mM (inactive).

As for `NC1=NC(=O)C(CC(=O)Nc2ccccc2F)S1` (stereo not drawn), the Kd was > 4 mM (inactive). As to `CCOC(=O)c1ccc(F)cc1F`, the Kd is > 4 mM (inactive). The result for `Cc1c(-c2ccccc2)[n+](=O)c(-c2ccco2)c(C)n1[O-]` reads > 4 mM (inactive); that for `O=C(c1ccccc1)c1ccccc1C(=O)N1CCOCC1`, > 4 mM (inactive). In the case of `NS(=O)(=O)c1ccc(NC(=O)c2cccs2)cc1`, the Kd is > 4 mM (inactive).

As for `OCC1=Cc2ccccc2OC1`, the Kd is > 4 mM (inactive). Consider `Cc1ccc(N)nc1`, for which the Kd is > 4 mM (inactive). The result for `COc1ccc(NC2=NCC(C)S2)cc1` (stereo not drawn) reads > 4 mM (inactive); that for `Cc1ccc(C(=O)N2CCC(C(N)=O)CC2)cc1C`, > 4 mM (inactive); that for `Cn1cc(Cl)c(C(=O)Nc2ccc(F)cc2F)n1`, > 4 mM (inactive). As to `CCCc1cc(=O)[nH]c2nnc(SCC(C)=O)n12`, the Kd was > 4 mM (inactive).

As to `O=C(c1sc2cccc(F)c2c1Cl)N1CCOCC1`, the Kd entry was “inactive”.

Take `CC(C)NC(=S)N1CCN(S(C)(=O)=O)CC1`: the Kd was > 4 mM (inactive). The figure for `O=C(O)c1ccc2c(c1)CCO2` is > 4 mM (inactive); for `Cc1cc(NC(=O)c2cccc(N3C(=O)CCC3=O)c2)no1` it is > 4 mM (inactive); for `CC(=O)Nc1cnn(Cc2ccc(Br)cc2)c1` it is > 4 mM (inactive). The result for `CC(=O)c1cccc(NC(=O)C=C(C)C)c1` reads > 4 mM (inactive); that for `O=C(Nc1ccccc1[N+](=O)[O-])c1ccc(=O)[nH]n1`, > 4 mM (inactive); that for `OCCCc1nc2ccc(C(F)(F)F)cc2[nH]1`, > 4 mM (inactive). The figure for `Cc1nc2ccccc2c(=O)[nH]1` is > 4 mM (inactive); for `NC(=S)CN1CCCC1=O` it is > 4 mM (inactive). Regarding `CCc1c(C(=O)N2CCOCC2)csc1C`, the Kd is > 4 mM (inactive). The result for `COc1cc(C/C=C/c2ccccc2)c(OC)cc1O` reads > 4 mM (inactive); that for `CNC(=O)C1CCCN(S(C)(=O)=O)C1` (stereo not drawn), > 4 mM (inactive). The result for `c1ccc(C[N+]23CCN(CC2)CC3)cc1` reads > 4 mM (inactive); that for `CS(=O)(=O)c1ccc(N)cc1`, > 4 mM (inactive). For `CCNS(=O)(=O)c1ccc(OC)c(C)c1`, the Kd was > 4 mM (inactive).

Consider `S=c1nc(C2CC2)[nH]c2ccccc12`, for which the Kd is > 4 mM (inactive). Regarding `O=C(Nc1c[nH]c(=O)[nH]c1=O)c1cccs1`, the Kd is > 4 mM (inactive). The result for `COC(=O)C1COCCN1C(=O)CS(=O)(=O)c1ccc(C(C)C)cc1` (stereo not drawn) reads “inactive”; that for `CC(=O)O[C@H]1C[C@@H](OC(C)=O)C(C)(C)C2C[C@@H](O)[C@]3(C)C(CC[C@@]4(C)[C@H](c5ccoc5)OC(=O)[C@H]5O[C@]543)[C@]21C` (stereo partly drawn), > 4 mM (inactive). The figure for `C[n+]1ccn(C/C(N)=N/O)c1` is > 4 mM (inactive). With `CCc1ccccc1OCc1nnc(N)s1`, the Kd was > 4 mM (inactive). The result for `Nc1cccc(-n2cnnn2)c1` reads > 4 mM (inactive).

For `OCc1csc(-c2ccccc2)n1`, the Kd is > 4 mM (inactive). Take `OCC(O)Cc1ccc2c(c1)OCO2` (stereo not drawn): the Kd was > 4 mM (inactive). As for `NC(=O)c1ccccc1N=Cc1ccco1`, the Kd was > 4 mM (inactive). The result for `Nc1oncc1-c1ccccn1` reads > 4 mM (inactive). Regarding `COc1cccc(O)c1O`, the Kd is > 4 mM (inactive). For `COc1cc2c(cc1OC)-c1nnnn1C(C)(C)C2`, the Kd was > 4 mM (inactive).

With `O=C(CSc1ncn[nH]1)c1ccc2c(c1)OCO2`, the Kd was > 4 mM (inactive). The result for `O=C1NC(=O)C2C3C=CC(O3)C12` (stereo not drawn) reads > 4 mM (inactive); that for `O=C(O)CC12CC3CC(CC(O)(C3)C1)C2`, > 4 mM (inactive). As to `CC(C)=CCc1c(O)cc(C)oc1=O`, the Kd is > 4 mM (inactive).

Take `CC(=O)O[C@H]1CC[C@@]2(C)C(=CC(=O)C3C4CCC(C(C)CCCC(C)C)[C@@]4(C)CCC32)C1` (stereo partly drawn): the Kd is > 4 mM (inactive). The figure for `Cc1[nH]ccc2c1[nH]c1cc(=O)ccc12` is > 4 mM (inactive). For `Cc1ccc2cc(CO)ccc2n1`, the Kd is > 4 mM (inactive). Turning to `O=Cc1c(N2CCOCC2)nc2ccccn2c1=O`, the Kd was > 4 mM (inactive). The figure for `O=S1(=O)CCC(NCCO)C1` (stereo not drawn) is > 4 mM (inactive); for `Nc1ccc2c(c1)OCO2` it is > 4 mM (inactive); for `O=C(c1nc2ncccn2n1)N1CCc2ccccc2C1` it is > 4 mM (inactive). The result for `CC(=O)NC(=S)Nc1ccccc1N1CCOCC1` reads > 4 mM (inactive).

Regarding `CCOC(=O)c1c(C)nc2ccccn12`, the Kd is > 4 mM (inactive). The figure for `O=C(NN1C(=O)C2C3C=CC(C3)C2C1=O)C1CC=CCC1` (stereo not drawn) is > 4 mM (inactive); for `C/C(=C\CO)CC[C@H](C)CCC[C@H](C)CCCC(C)C` it is > 4 mM (inactive). Turning to `CN1CCC(NC(=S)NC2CC2)CC1`, the Kd was > 4 mM (inactive). The figure for `Nc1ccc(-n2cccn2)cc1` is > 4 mM (inactive); for `NC12CC3CC(C1)CC(O)(C3)C2` it is > 4 mM (inactive). In the case of `O=C(c1ccc(F)cc1)N1CCN(c2ncccn2)CC1`, the Kd was > 4 mM (inactive). Turning to `NC(=O)CSc1ccc(-c2ccco2)nn1`, the Kd is > 4 mM (inactive). With `COc1ccc([C@H]2Oc3c(I)c(OC)cc(OC)c3C[C@@H]2O)cc1OC`, the Kd is > 4 mM (inactive). In the case of `Cc1ccc(NC(=O)CN2C(=O)CSC2=O)cc1`, the Kd was > 4 mM (inactive). The result for `CC1=[N+]([O-])C2(N)CCc3c(no[n+]3[O-])C2(O)C1` (stereo not drawn) reads > 4 mM (inactive); that for `CCN(CC)C(=O)c1n[nH]c(=O)c2ccccc12`, > 4 mM (inactive). The figure for `O=C1CCCN1C(=O)CN1CCOCC1` is > 4 mM (inactive); for `CC1=CCCC2C1(C)CCC(C)C2(C)CC/C(C)=C/C[n+]1cn(C)c2c(N)ncnc21` (stereo not drawn) it is > 4 mM (inactive); for `Cc1nnsc1C(=O)O` it is > 4 mM (inactive). For `O=C(O)c1cc2ccccc2o1`, the Kd is > 4 mM (inactive). The figure for `O=C(NCO)c1ccc([N+](=O)[O-])cc1` is > 4 mM (inactive); for `Cc1occc1C(=O)NCc1ccccn1` it is > 4 mM (inactive); for `CN(c1ccccc1C(=O)N1CCCC1)S(C)(=O)=O` it is > 4 mM (inactive). Regarding `O=C(CCc1ccc(O)cc1)c1c(O)cc(O)cc1O`, the Kd is > 4 mM (inactive). On to `Nc1[nH]c(=S)[nH]c(=O)c1-c1ccccc1`, for which the Kd is > 4 mM (inactive). The result for `O=C(/C=C1\SC(=O)NC1=O)NCc1ccccc1` reads > 4 mM (inactive); that for `COc1ccc2[nH]cc(CCNC(C)=O)c2c1`, > 4 mM (inactive).

Turning to `COc1c(C(C)C)oc2cc3oc(=O)ccc3cc12`, the Kd was > 4 mM (inactive).

Take `NC(=O)C1CCN(C(=O)Nc2ccccc2)CC1`: the Kd was > 4 mM (inactive). On to `O=C(CC1SC(=O)NC1=O)Nc1ccccc1` (stereo not drawn), for which the Kd is > 4 mM (inactive). Take `Cc1cc(C(=O)NC2=NCCS2)cs1`: the Kd is > 4 mM (inactive). As to `O=c1cc(-c2ccc(O)cc2)oc2cc(O)cc(O)c12`, the Kd was > 4 mM (inactive). In the case of `COc1cccc(S(=O)(=O)Nc2cccnc2)c1`, the Kd was > 4 mM (inactive).

With `COc1ccc(C[C@H]2NC[C@H](O)[C@H]2OC(C)=O)cc1`, the Kd is > 4 mM (inactive). For `Nc1ccc(CCC(=O)O)cc1`, the Kd was > 4 mM (inactive). The figure for `Cc1nnc(NCCCO)[nH]c1=O` is > 4 mM (inactive); for `Cn1c(=O)n(C)c2nc([N+](=O)[O-])c(Cl)cc21` it is > 4 mM (inactive).
